Data from patent US6586206B1, “Methods for making recombinant proteins using apoptosis inhibitors” (priority 1999, dated 2003).
Residues, ends and D or L forms follow the SMILES beside them. *: point of attachment. Cbz = O=C(OCc1ccccc1)*; CH2F = FC*

Experiments:
[1] = system: serum-free culture of CHO cells; settings: Goswami et al. 1999; cited from earlier work
caspase-3 = caspase-3 activity in CHO culture treated with z-VAD-fmk; type: cell-based, Chinese hamster; settings: z-VAD-fmk added to the culture at 100 uM, from 48 hours, every 24 hours
Procedure: (§1) FIGS. 9-10 show assay results of CHO cells seeded in 60 mm dishes and exposed to caspase inhibitor, z-VAD-fmk (added to the cell culture at 100 micromolar concentration, 48 hours after seeding). The z-VAD-fmk inhibitor was added to the culture every 24 hours thereafter. Samples were taken every day and analyzed for caspase-3 activity (FIG. 9) and the % viable cells (FIG. 10).
(§2) CHO (dhfr+) cells grown in suspension were seeded at 1 million cells/ml in 60 mm tissue culture dishes. The cell culture media was a serum-free DMEM/Ham F-12 based medium containing recombinant human insulin and trace elements. Viability of the culture on day 0 was 96%. Two plates were analyzed each day for viability by Trypan Blue exclusion and by annexin/PI binding (Clontech) and for viable cell density. The experiment was carried out for 10 days. A chemical inhibitor of caspases, z-VAD-fmk (Enzyme Systems Products) was dissolved in DMSO to make a 100 mM (1000×) stock and 4 ul was added to a 60 mm dish containing 4 ml of culture. The inhibitor was added 48 hours after the start of the experiment (prior to the onset of apoptosis) and a new aliquot of the z-VAD-fmk inhibitor was added every 24 hours. Controls were cultures without any addition and cultures with the addition of DMSO only.

CHO (dhfr+) cells [2] = assay: viability/apoptosis of CHO culture in 60 mm dishes with z-VAD-fmk (Trypan Blue exclusion, annexin/PI); type: cell-based, Chinese hamster
Procedure: as §1, §2

different cell lines = settings: under cell-culture conditions; other investigators; cited from earlier work
NSO myeloma cells = settings: overexpression in NSO myeloma cells; Murray et al. 1996; cited from earlier work
CHO (dhfr+) cells [3] = assay: effect of p35 expression on viability in 2 liter bioreactors; type: cell-based, Chinese hamster; settings: p35 expressed in CHO cells vs cpc vector control, 2 liter bioreactor

COC(=O)C[C@H](NC(=O)[C@H](C)NC(=O)[C@@H](NC(=O)OCc1ccccc1)C(C)C)C(=O)CF [z-VAD-fmk] (Cbz-Val-Ala-Asp(OMe)-CH2F)
life of the culture [1]: unable to substantially extend the life
caspase-3 activity (caspase-3): inhibition of caspase-3 activity
apoptosis in cell cultures (CHO (dhfr+) cells [2]; added at a concentration of about 100 micromolar): can inhibit apoptosis
cell viability (CHO (dhfr+) cells [2]; z-VAD-fmk added to the culture at 100 uM, from 48 hours, every 24 hours): prolongation of cell viability

bcl-2: anti-apoptotic gene overexpressed in cultured cells
prevention of cell death (different cell lines): can be effective in preventing different cell lines from death
decline phase characteristics of the cultured cells (NSO myeloma cells): failed to affect the decline phase characteristics

B1: baculovirus p35: apoptosis inhibitor, baculovirus p35, expressed in CHO cells from p35/CPC construct (protein, UniProt P08160 1-299, looked up)
Early 35 kDa protein: MCVIFPVEIDVSQTIIRDCQVDKQTRELVYINKIMNTQLTKPVLMMFNISGPIRSVTRKNNNLRDRIKSKVDEQFDQLERDYSDQMDGFHDSIKYFKDEHYSVSCQNGSVLKSKFAKILKSHDYTDKKSIEAYEKYCLPKLVDERNDYYVAVCVLKPGFENGSNQVLSFEYNPIGNKVIVPFAHEINDTGLYEYDVVAYVDSVQFDGEQFEEFVQSLILPSSFKNSEKVLYYNEASKNKSMIYKALEFTTESSWGKSEKYNWKIFCNGFIYDKKSKVLYVKLHNVTSALNKNVILNTIK
viability in the bioreactor (CHO (dhfr+) cells [3]): prolongation of viability
